The values that follow come from patent publication US20110300147A9, “Inhibiting tumor cell invasion, metastasis and angiogenesis” (The Scripps Research institute, priority 2005, published 2011).

Series [1] relates to HUVEC. In words: matrigel endothelial cell tube formation assay. It counts as cell-based, human. The procedure:
The effect of AEPI-1 on endothelial cell function was assessed in vitro in a matrigel endothelial cell tube formation assay. […] In contrast, addition of recombinant legumain dramatically promoted and accelerated tube formation (FIG. 4D). HUVEC tube formation was observed as early as 5 hours after assay initiation when legumain was added. Under normal conditions 24 hours were required for the vascular tubes to form.

Series [2] relates to mouse aorta vessel sprouts. Kind of series: mouse aortic sprouting assay. It counts as cell-based. How it is done:
The effects of AEPI-1 on angiogenesis were further evaluated in mouse aortic sprouting assays. First, AEPI-1 was added to the beginning of the experiment to determine its effect on initiation of vessel sprouts (FIG. 5A). […] In the second assay, AEPI-1 was added at the third day after aortic sprouts were already formed (FIG. 5B), to ascertain whether asparaginyl endopeptidase activity was required for continued extension of vessel growth.

Series [3] has as its system HUVEC. In words: endothelial cell invasion assay under hypoxia. It counts as cell-based, human. To be noted: hypoxic conditions. How it is done: Cell invasion and mobility assays. Cell migration and invasion assays were performed as described with modifications (Albini et al., 1987). Stock solutions (15 mg/ml) of Matrigel basement membrane matrix (Becton Dickinson, Bedford, Mass.) were stored at −80° C. in 100 μl aliquots. After thawing on ice, the stock was diluted 1:50 with cold serum-free culture media and immediately applied to each membrane insert (8 μm pore) that formed the upper chambers of the multi-well invasion assay plate. The Matrigel was incubated overnight in a sterile laminar tissue culture hood. The membranes were hydrated for 2 hours with 250 μl of serum-free medium and excess medium was removed by aspiration. Medium containing 10% FBS was added to the bottom of each well. A suspension of 10^5 cells in 150 μl of serum-free medium was added to the upper chamber and incubated for 12 hours at 37° C., 5% CO2. At the indicated times, the membrane inserts were removed from the plate and the non-invading cells were removed from the upper surface. Membrane associated cells were stained with 0.09% crystal violet for 30 minutes and washed twice with PBS. The invading cells were counted microscopically. […]
The effect of AEPI-1 on endothelial cell function was assessed in vitro in a matrigel endothelial cell tube formation assay. […]

The subject of a further series is MDA-MB-231 cells. Kind of series: MDA-MB-231 human mammary carcinoma model. It counts as in vivo, Balb C nu/nu mice. To be noted: two weeks after tumor cell implantation. The procedure: The effect of AEPI-1 on tumor growth and invasion was then evaluated in a human mammary carcinoma model established in Balb C nu/nu mice. The MDA-MB-231 cells grew aggressively in vivo and formed a tumor that was similar to a human infiltrating ductal carcinoma with apparent glandular differentiation. The tumor locally invaded surrounding tissues and skeletal muscles.

For series [4], the target named is legumain cleavage of caspase 9 (Homo sapiens, UniProt Q99538). In words: caspase 9 activity after legumain cleavage. It counts as biochemical. The source says:
Legumain catalytically inactivates caspase 9. In addition to suppression of cathepsin B, legumain efficiently inactivates caspase 9 and depletes the cell of pro-caspase 9 (FIG. 20A). […] Loss of pro-caspase 9 led to reduced caspase 3 activation in a reconstituted apoptosome system (FIG. 20D), which was further confirmed by detection of reduced caspase 3 activity (FIG. 20E). These observations indicate that asparaginyl endopeptidases play a critical role in cell survival and tumorigenesis.

The test system of series [5] is angiogenesis in Matrigel plugs. Kind of series: Matrigel plug angiogenesis assay in vivo. More on the design: species or system Balb C nu/nu mice. How it is done: The effect of AEPI-1 on angiogenesis was further investigated in vivo using a Matrigel plug assay. Matrigel containing FGF-2 was injected subcutaneously into Balb C nu/nu mice.
The effect of AEPI-1 on angiogenesis induced by cancer cells was then investigated by including human breast cancer cells (MDA-MB-231 cells) in the Matrigel plugs. The cancer cells produced a spectrum of angiogenic factors and induced robust angiogenic vessel growth (FIG. 5C).

Series [6] is described as follows: cytotoxicity of AEPI-1 in wild type 293 cells. The class given is cell-based, human. Conditions: human, wild type 293 cells. The procedure: (§1) To further evaluate the role of asparaginyl endopeptidases in angiogenesis, four asparaginyl endopeptidases inhibitors (AEPI) were tested using recombinant legumain in an amidolytic activity assay with fluorescent substrate. FIG. 4A graphically illustrates the effects that AEPI-1 to AEPI-4 (also referred to as legumain inhibitors LI-1 to LI-4) have on asparaginyl endopeptidase activity. […] No apparent cytotoxicity was observed until almost 100 μM AEPI-1 was used in these assays (FIG. 4B).

Another series concerns wild type 293 cells. Kind of series: cytotoxicity of AEPI-1 in wild type 293 cells. Conditions: wild type and legumain-expressing 293 cells. The class given is cell-based, human. The procedure: as §1
The next series has as its system 4T1 breast cells. Kind of series: 4T1 experimental lung metastasis model. The class given is in vivo, BALB/c mice. To be noted: AEPI-1 100 μg i.p. daily for two weeks. How it is done:
A lung metastasis model was induced experimentally by injecting a cell suspension of 4T1 breast cells (1×10^5) suspended in 0.1 ml serum free medium into the tail vein of six-week-old female BALB/c mice. The mice were treated with 100-μl intraperitoneal injections of either PBS alone (control group) or LEG-3 (100 μg/100 μl) daily for two weeks.
4T1 Lung Experimental Metastasis was generated by suspending 4T1 cells (1×10^5) in 0.1 ml serum-free medium and injecting these cells into the tail vein of mice under the anesthesia. Treatment involved 100 μl intraperitoneal injection of either saline alone (control group) or AEPI-1 (treatment group). The AEPI-1 treatment group was given 100 μg AEPI-1 in saline (100 ul) by intraperitoneal injection daily for two weeks. All mice were euthanized by CO2 and lungs were removed, weighted and fixed in the Bouin's solution. Lung metastases were counted by anatomy microscope.

Series [7] in a line: cytotoxicity of AEPI-1 in 293 cells expressing legumain. Conditions: human, 293 cells recombinantly expressing legumain; 293 cells that recombinantly expressed legumain. The class given is cell-based. How it is done:
as §1

The test system of the next series is breast cancer cells. In words: hypoxia induced breast cancer cell migration in vitro. The class given is cell-based.

legumain cleavage of caspase 9, sequence (Q99538 18-323, species assumed): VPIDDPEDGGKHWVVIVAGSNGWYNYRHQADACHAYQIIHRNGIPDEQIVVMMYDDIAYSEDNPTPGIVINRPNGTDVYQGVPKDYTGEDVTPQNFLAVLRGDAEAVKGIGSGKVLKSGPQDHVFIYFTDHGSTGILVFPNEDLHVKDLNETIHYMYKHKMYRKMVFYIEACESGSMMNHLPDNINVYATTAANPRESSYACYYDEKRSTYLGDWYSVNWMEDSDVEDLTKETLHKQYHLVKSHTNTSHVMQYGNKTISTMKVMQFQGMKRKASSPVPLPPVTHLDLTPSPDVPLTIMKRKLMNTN

Consider `CCOC(=O)C1OC1C(=O)N(CC(N)=O)NC(=O)[C@H](C)NC(=O)[C@H](C)NC(=O)OCc1ccccc1` (stereo partly drawn) [AEPI-1, Cbz-Ala-Ala-AzaAsn-(S,S)-EPCOOEt], for which, in the series with HUVEC [1] (HUVEC, matrigel), the “concentration at which inhibition of tube formation was apparent” value is 100 nM and the “concentration at which tube formation was completely inhibited” value was determined as 600 nM. In addition, in the series with HUVEC [1] (hypoxic conditions), the “hypoxia induced tube formation” value is “inhibited”. Further, the HUVEC tube formation entry in the series with HUVEC [1] (matrigel, normal conditions) is reported as “suppressed HUVEC tube formation in a dose dependent manner”. Moreover, the “FGF-2 induced vessel sprouts (initiation)” value in series [2] (AEPI-1 added at the beginning of the experiment) is recorded as “inhibited FGF-2 induced vessel sprouts in a dose dependent manner”. Besides, the “extension of established vascular outgrowth” value in series [2] (AEPI-1 added at the third day after aortic sprouts were formed) is “significantly reduced”. The “hypoxia induced endothelial cell invasion” value in the series on HUVEC [3] is given as “inhibited”. In addition, in the series on MDA-MB-231 cells, the “tumor differentiation into a more invasive form” value was “blocked” and the tumor growth entry is on record as “completely suppressed tumor growth”. The “loss of caspase 9 activity caused by legumain cleavage” value in series [4] is “inhibited”. For the same compound, the “cancer cell-induced angiogenesis in the plug” value in series [5] (MDA-MB-231 cells in the Matrigel plugs) is listed as “essentially completely inhibited”. Besides, the “FGF-2 induced vessel formation in the plug” value in series [5] (Matrigel containing FGF-2 s.c., gross appearance, hemoglobin content, histology) was “significantly inhibited”. Besides, the CC50 in series [6] was found to be 320 µM. For the same compound, the “concentration until which no apparent cytotoxicity was observed” value in the series on wild type 293 cells was around 100 µM. In the series with 4T1 breast cells, the experimental lung metastasis result is reported as “inhibited experimental lung metastasis”. Further, in series [7], the CC50 stood at 430 µM. Further, in the series on breast cancer cells, the “hypoxia induced breast cancer cell migration” value is on record as “inhibited”.
